Read-outs that look alike come from different tables or passages of the source.
What was measured:
Assay type in all cases: cell-based
M2 = target: T1, M2 (Homo sapiens, UniProt P08172); experiment: In vitro functional assay of muscarinic acetylcholine receptor activity, M2
T1 sequence (P08172 1-466): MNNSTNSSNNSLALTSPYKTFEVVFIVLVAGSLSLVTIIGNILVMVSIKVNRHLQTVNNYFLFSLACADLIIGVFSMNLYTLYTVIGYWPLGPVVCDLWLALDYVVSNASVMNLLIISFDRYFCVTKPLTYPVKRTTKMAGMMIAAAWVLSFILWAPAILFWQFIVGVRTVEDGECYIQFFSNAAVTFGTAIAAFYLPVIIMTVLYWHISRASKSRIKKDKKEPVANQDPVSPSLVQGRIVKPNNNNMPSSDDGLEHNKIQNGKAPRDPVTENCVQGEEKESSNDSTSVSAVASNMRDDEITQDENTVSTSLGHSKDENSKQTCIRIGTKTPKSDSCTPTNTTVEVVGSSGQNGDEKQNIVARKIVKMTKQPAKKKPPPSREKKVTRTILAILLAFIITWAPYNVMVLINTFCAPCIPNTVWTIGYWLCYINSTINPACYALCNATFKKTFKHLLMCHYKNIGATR
Experimental: [The procedure below names another target; the source lists this target under the same test.] (§1) CHO-K1 cells stably expressing human M1 receptor with Aequorin (Perkin Elmer) were grown in F12 media, 10% FBS with 0.4 mg/mL geneticin and […]. Cells were grown to confluence and frozen down to be assayed at a later date. On the day of the experiment cells were thawed in a 37° C. water bath, resuspended in DMEM/HAM's F12 with HEPES (Invitrogen)+0.1% protease-free BSA (assay buffer), and spun down to remove freezing media. After centrifugation, supernatant was removed and 12 mL of assay buffer was added. Coelenterazine h (Promega) was added to the cells at a final concentration of 5 uM and incubated for 4 hours at room temperature in the dark. Compound master plate-96 deep well (Corning) were formatted in a 8-point DRC in assay buffer with 0.2% DMSO at a starting concentration of 60 uM (2×). After 4 hours of incubation, cells were plated at a concentration of 5×10^5 cells/well in 96 well white-walled, tissue culture-treated, clear-bottom plates (VWR). Compounds were added to the daughter plate, and cells plus compound were incubated at room temperature for 30 minutes in the dark.
(§2) Calcium flux was measured using the FlexStation 3 (Molecular Devices). To measure the antagonist dose-response, the EC80 of Acetylcholine was injected to the daughter plate using the automated compound transfer function of the Flex Station, and the increase in luminescence was measured over time. Antagonist activity was analyzed as a concentration dependent decrease in the EC80 acetylcholine response. Dose response curves were generated using Prism (GraphPad Software). The IC50 of the compounds was calculated from the dose response curve.

human M1 receptor = target: T2, human M1 receptor (Homo sapiens, UniProt P11229); experiment: In vitro functional assay of muscarinic acetylcholine receptor activity (aequorin calcium flux, antagonist mode vs EC80 acetylcholine), M1
T2 sequence (P11229 1-460): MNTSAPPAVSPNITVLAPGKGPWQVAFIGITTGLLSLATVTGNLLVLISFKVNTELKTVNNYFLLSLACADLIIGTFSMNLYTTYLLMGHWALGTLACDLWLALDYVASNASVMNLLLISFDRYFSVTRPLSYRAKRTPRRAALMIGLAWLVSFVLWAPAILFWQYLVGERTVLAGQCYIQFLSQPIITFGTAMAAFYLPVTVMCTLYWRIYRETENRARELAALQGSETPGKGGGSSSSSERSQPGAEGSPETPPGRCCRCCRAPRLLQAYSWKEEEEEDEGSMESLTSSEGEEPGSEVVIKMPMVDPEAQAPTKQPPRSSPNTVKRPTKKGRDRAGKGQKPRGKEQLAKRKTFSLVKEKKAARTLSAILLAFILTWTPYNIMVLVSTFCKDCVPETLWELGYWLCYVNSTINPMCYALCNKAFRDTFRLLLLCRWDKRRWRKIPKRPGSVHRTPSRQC
Experimental: as §1, §2

M3 = M3 (Homo sapiens, UniProt P20309); experiment: In vitro functional assay of muscarinic acetylcholine receptor activity, M3; conditions: antagonist IC50 at M3; read-out: M3 IC50
Experimental: [The procedure below names another target; the source lists this target under the same test.] as §1, §2

[1] = antagonist IC50 at M2, read-out: M2 IC50
[2] = CHO-K1 cells stably expressing human M1 receptor with Aequorin, decrease in EC80 acetylcholine response, read-out: M1 IC50

Chain of M3 (P20309 whole entry): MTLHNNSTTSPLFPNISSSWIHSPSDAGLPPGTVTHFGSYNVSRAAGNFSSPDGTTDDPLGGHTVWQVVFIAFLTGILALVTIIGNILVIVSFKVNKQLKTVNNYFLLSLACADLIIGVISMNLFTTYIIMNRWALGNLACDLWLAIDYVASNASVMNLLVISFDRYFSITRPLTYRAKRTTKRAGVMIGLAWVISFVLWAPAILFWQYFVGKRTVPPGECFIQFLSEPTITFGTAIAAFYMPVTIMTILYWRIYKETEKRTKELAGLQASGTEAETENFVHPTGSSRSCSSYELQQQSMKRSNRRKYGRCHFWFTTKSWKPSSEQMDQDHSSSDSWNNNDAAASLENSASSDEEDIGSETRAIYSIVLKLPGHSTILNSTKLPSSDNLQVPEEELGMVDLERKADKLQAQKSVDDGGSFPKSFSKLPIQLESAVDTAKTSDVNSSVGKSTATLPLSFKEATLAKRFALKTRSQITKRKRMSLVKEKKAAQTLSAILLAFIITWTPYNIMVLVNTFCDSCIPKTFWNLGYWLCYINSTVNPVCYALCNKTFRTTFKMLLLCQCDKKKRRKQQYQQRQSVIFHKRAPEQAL

Row | SMILES | IC50 (M2; [1]) [µM] | IC50 (human M1 receptor) [µM] | IC50 (M3) [µM] | IC50 (human M1 receptor; [2]) [µM] | IC50 (M2) [µM]
1 | N#Cc1ccc(N2[C@@H]3CC[C@H]2CN(C(=O)[C@H]2C[C@H](Nc4cccc5ncccc45)C2)C3)nc1 [Example 45, 6-(3-{3-[(quinolin-5-yl)amino]cyclobutanecarbonyl}-3,8-diazabicyclo[3.2.1]octan-8-yl)pyridine-3-carbonitrile] | 1 to 10 | 0.1 to 1 | > 10 |  | 
2 | Cc1cc(F)cnc1N1CCN(C(=O)CCCc2cccc3ncncc23)[C@@H](C)C1 [Example 82, (S)-1-(4-(5-fluoro-3-methylpyridin-2-yl)-2-methylpiperazin-1-yl)-4-(quinazolin-5-yl)butan-1-one] | 1 to 10 |  | 1 to 10 | < 0.1 | 
3 | N#Cc1ccc(N2C3CCC2CN(C(=O)N2CC(=Cc4cccc5ncccc45)C2)C3)nc1 [Example 46, 6-(3-{3-[(quinolin-5-yl)methylidene]azetidine-1-carbonyl}-3,8-diazabicyclo-[3.2.1]octan-8-yl)pyridine-3-carbonitrile] | 1 to 10 | 0.1 to 1 | 1 to 10 |  | 
4 | Cc1cc(F)cnc1N1CCN(C(=O)CCS(=O)(=O)c2cccc3ncsc23)[C@@H](C)C1 [Example 18, 3-(1,3-benzothiazole-7-sulfonyl)-1-[(2S)-4-(5-fluoro-3-methylpyridin-2-yl)-2-methylpiperazin-1-yl]propan-1-one] | 1 to 10 |  | 1 to 10 | < 0.1 | 
5 | O=C(CCNCc1cccc2ncccc12)N1C[C@H]2CC[C@@H](C1)N2c1ccncc1F [Example 10, 1-((1R,5S)-8-(3-fluoropyridin-4-yl)-3,8-diazabicyclo[3.2.1]octan-3-yl)-3-((quinolin-5-ylmethyl)amino)propan-1-one] | > 10 |  | > 10 | 1 to 10 | 
6 | COc1cnccc1N1CCN(C(=O)CCCc2cccc3ncccc23)[C@@H](C)C1 [Example 92, (S)-1-(4-(3-methoxypyridin-4-yl)-2-methylpiperazin-1-yl)-4-(quinolin-5-yl)butan-1-one] | 0.1 to 1 |  | 1 to 10 | < 0.1 | 
7 | Cc1cc(F)cnc1N1CCN(C(=O)CNCc2cccc3ncccc23)[C@@H](C)C1 [Example 13, 1-[(2S)-4-(5-fluoro-3-methylpyridin-2-yl)-2-methylpiperazin-1-yl]-2-[[(quinolin-5-yl)methyl]amino]ethanone] | 1 to 10 |  | 1 to 10 | 0.1 to 1 | 
8 | C[C@H]1CN(c2cc[nH]c(=O)c2)CCN1C(=O)CCS(=O)(=O)c1cccc2ncsc12 [Example 117, (S)-4-(4-(3-(benzo[d]thiazol-7-ylsulfonyl)propanoyl)-3-methylpiperazin-1-yl)pyridin-2(1H)-one] | > 10 |  | > 10 | 1 to 10 | 
9 | Cc1cc(F)cnc1N1CCN(C(=O)CCCS(=O)(=O)c2cccc3ncsc23)[C@@H](C)C1 [Example 97, (S)-4-(benzo[d]thiazol-7-ylsulfonyl)-1-(4-(5-fluoro-3-methylpyridin-2-yl)-2-methylpiperazin-1-yl)butan-1-one] | 1 to 10 |  | 1 to 10 | 1 to 10 | 
10 | Cc1cc(F)cnc1N1CC(C)N(C(=O)CCS(=O)(=O)c2cccc3ncsc23)C[C@H]1C (stereo partly drawn) [Example 127, 3-(1,3-benzothiazole-7-sulfonyl)-1-[(5R)-4-(5-fluoro-3-methylpyridin-2-yl)-2,5-dimethylpiperazin-1-yl]propan-1-one] | 0.1 to 1 |  | 1 to 10 | < 0.1 | 
11 | COc1cnc2cccc(CNCCC(=O)N3CC4CCC(C3)N4c3ccc(Cl)cn3)c2c1 [Example 178, 1-[8-(5-chloropyridin-2-yl)-3,8-diazabicyclo[3.2.1]octan-3-yl]-3-{[(3-methoxyquinolin-5-yl)methyl]amino}propan-1-one] | > 10 | 0.1 to 1 | > 10 |  | 
12 | C[C@@H]1CN(c2ccncc2Cl)CCN1C(=O)CCS(=O)(=O)c1cccc2ncsc12 [Example 19, 3-(1,3-benzothiazole-7-sulfonyl)-1-[(2R)-4-(3-chloropyridin-4-yl)-2-methylpiperazin-1-yl]propan-1-one] | 0.1 to 1 |  | > 10 | < 0.1 | 
13 | Cc1ccc(COCCC(=O)N2CC3CCC(C2)N3c2ccc(C#N)cn2)c2cccnc12 [Example 176, 6-(3-{3-[(8-methylquinolin-5-yl)methoxy]propanoyl}-3,8-diazabicyclo[3.2.1]octan-8-yl)pyridine-3-carbonitrile] | 1 to 10 | 0.1 to 1 | > 10 |  | 
14 | C[C@H]1CN(c2ccc(C#N)nc2)CCN1C(=O)CCS(=O)(=O)c1cccc2ncsc12 [Example 114, (S)-5-(4-(3-(benzo[d]thiazol-7-ylsulfonyl)propanoyl)-3-methylpiperazin-1-yl)picolinonitrile] | 1 to 10 |  | 1 to 10 | 0.1 to 1 | 
15 | C[C@H]1CN(c2ccnc(N)c2)CCN1C(=O)CCS(=O)(=O)c1cccc2ncsc12 [Example 21, (S)-1-(4-(2-aminopyridin-4-yl)-2-methylpiperazin-1-yl)-3-(benzo[d]thiazol-7-ylsulfonyl)propan-1-one] | 0.1 to 1 |  | 1 to 10 | < 0.1 | 
16 | O=C(CCS(=O)(=O)c1cccc2nccn12)N1CC2CCC(C1)N2c1ccc(C(F)(F)F)cn1 [Example 136, 3-{imidazo[1,2-a]pyridine-5-sulfonyl}-1-{8-[5-(trifluoromethyl)pyridin-2-yl]-3,8-diazabicyclo[3.2.1]octan-3-yl}propan-1-one] | 1 to 10 | < 0.1 | 1 to 10 |  | 
17 | N#Cc1ccc(N2C3CCC2CN(C(=O)COCc2cccc4ncnn24)C3)nc1 [Example 182, 6-{3-[2-({[1,2,4]triazolo[1,5-a]pyridin-5-yl}methoxy)acetyl]-3,8-diazabicyclo[3.2.1]octan-8-yl}pyridine-3-carbonitrile] | > 10 |  | > 10 | 1 to 10 | 
18 | N#Cc1ccc(N2[C@@H]3CC[C@H]2CN(C(=O)CCOCc2cccc4ncccc24)C3)nc1 [Example 40, 6-((1R, 5S)-3-(3-(quinolin-5-ylmethoxy)propanoyl)-3,8-diazabicyclo[3.2.1]octan-8-yl)nicotinonitrile] |  | < 0.1 | > 10 |  | 0.1 to 1
19 | Cc1cc(N2C3CCC2CN(C(=O)[C@H]2C[C@H](Oc4cccc5ncsc45)C2)C3)ccn1 [Example 65, ((1r,3R)-3-(benzo[d]thiazol-7-yloxy)cyclobutyl)((1R,5S)-8-(2-methylpyridin-4-yl)-3,8-diazabicyclo[3.2.1]octan-3-yl)methanone] | 1 to 10 |  | > 10 | 1 to 10 | 
20 | [2H]C([2H])(NCCC(=O)N1CC2CCC(C1)N2c1ccc(C#N)cn1)c1cccc2ncsc12 [Example 36, 6-[3-(3-[(benzo[d]thiazol-7-ylmethyl-d2)amino]propanoyl)-3,8-diazabicyclo[3.2.1]octan-8-yl]pyridine-3-carbonitrile] | 1 to 10 | < 0.1 | 1 to 10 |  | 
21 | N#Cc1ccc(N2C3CCC2CN(C(=O)CCNCc2cccc4nsnc24)C3)nc1 [Example 150, 6-[3-(3-{[(2,1,3-benzothiadiazol-4-yl)methyl]amino}propanoyl)-3,8-diazabicyclo[3.2.1]octan-8-yl]pyridine-3-carbonitrile] | 1 to 10 | 0.1 to 1 | > 10 |  | 
22 | N#Cc1ccc(N2CCN(C(=O)CCS(=O)(=O)c3cccc4ncsc34)CC2)nc1 [Example 111, 6-(4-(3-(benzo[d]thiazol-7-ylsulfonyl)propanoyl)piperazin-1-yl)nicotinonitrile] | 1 to 10 |  | 1 to 10 | < 0.1 | 

From patent US11512090B2, “Muscarinic acetylcholine M1 receptor antagonists” (PIPELINE THERAPEUTICS, INC., priority 2018, dated 2022)
